Our source for the IC50 values is US9751881B2, “Inhibitors of the renal outer medullary potassium channel” (Merck Sharp & Dohme Corp., priority 2013, dated 2017).

hROMK (hKir1.1), sequence (P48048 whole entry): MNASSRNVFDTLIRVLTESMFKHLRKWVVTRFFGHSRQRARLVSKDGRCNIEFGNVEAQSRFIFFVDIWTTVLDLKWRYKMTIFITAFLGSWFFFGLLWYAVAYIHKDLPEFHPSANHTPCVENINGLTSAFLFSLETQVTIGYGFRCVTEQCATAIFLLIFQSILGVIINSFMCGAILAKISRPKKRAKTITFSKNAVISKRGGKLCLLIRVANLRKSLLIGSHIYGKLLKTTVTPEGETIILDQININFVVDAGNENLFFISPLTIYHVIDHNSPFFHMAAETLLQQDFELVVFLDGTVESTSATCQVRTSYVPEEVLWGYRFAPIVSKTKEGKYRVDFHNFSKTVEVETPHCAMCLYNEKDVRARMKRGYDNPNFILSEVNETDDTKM

This assay has as its target hROMK (hKir1.1) (Homo sapiens (Human), UniProt P48048). The assay can be described thus: Thallium Flux Assay (ROMK channel functional thallium flux, FLIPR-Tetra). It is filed as cell-based. The settings on record: HEK293 cells stably expressing hROMK (hKir1.1); unit not given in Table 4 (IC50 potencies less than 1 μM); read-out: ROMK TI IC50. Here is the method:
Cell Culture Conditions—HEK293 cells stably expressing hROMK (hKir1.1) were grown at 37° C. in a 10% CO2 humidified incubator in complete growth media: Dulbecco's Modified Eagle Medium supplemented with non-essential amino acids, Penicillin/Streptomycin/Glutamine, G418 and FBS. At >80% confluency, the media was aspirated from the flask and rinsed with 10 mL calcium/magnesium-free PBS. […] To dislodge the cell, the side of the flask was gently banged with one's hand. The cells completely titrated and then the cells were transferred to 25 mL complete media, centrifuged at 1,500 rpm for 6 min followed by resuspension in complete growth media and determine cell concentration. […] Under ideal growth conditions and appropriate tissue culture practices, this cell line is stable for 40-45 passages.
FluxOR Kit Components (Invitrogen F10017)
• FluxOR™ Reagent (Component A) • FluxOR™ Assay Buffer (Component B)—10× Concentrate • PowerLoad™ Concentrate (Component C)—100× Concentrate • Probenecid (Component D)—Lyophilized sample is kept at −20° C. Water soluble, 100× after solubilization in 1 mL water. […] Store at 4° C. • Thallium sulfate (Tl2SO4) Concentrate (Component G)—50 mM in water. […] Can be stored at room temperature • Stimulant Buffer (prepared at 5× final concentration in 1× FluxOR™Chloride-Free Buffer): 7.5 mM thallium sulfate and 0.75 mM potassium sulfate (to give a final assay concentration of 3 mM Thallium/0.3 mM potassium). Store at 4° C. when not in use. If kept sterile, this solution is good for months.
• 1. Seed HEK-hKir1.1 cells (50 μl at 20,000 cells/well) in 384-well PDL coated Microplates • 2. Allow cells to adhere overnight in humidified 37° C./10% CO2 incubator • 3. Completely remove cell growth media from microplate and replace with 25 μl loading buffer • 4. Incubate Microplate at room temperature, protected form light, for 90 min • 5. Remove loading buffer and replace with 25 μl 1× Assay Buffer±test compound. • 6. Incubate microplate at room temperature, protected from light, for 30 min • 7. […] Excitation=400 nm, Emission=460 & 580 nm. Collect data for ˜10 min.
Data Calculation—The fluorescence intensity of wells containing 3 μM of a standard control ROMK inhibitor of the present invention was used to define the ROMK-sensitive component of thallium flux. Fluorescence in the presence of test compounds was normalized to control values to provide % fluorescence change.
By IC50 is commonly meant the concentration that inhibits the measured activity by half. With `Cc1cc2c(cc1C(O)CN1CCC3(CC1)CCN(c1ccc(S(C)(=O)=O)cn1)C3)COC2=O` (stereo not drawn) [Example 39, 5-(1-Hydroxy-2-(2-(5-(methylsulfonyl)pyridin-2-yl)-2,8-diazaspiro[4.5]decan-8-yl)ethyl)-6-methylisobenzofuran-1(3H)-one], the IC50 came out at 195 nM.
With `COc1cc(C(O)CN2CCC3(CC2)CCN(c2ccc(S(C)(=O)=O)cn2)C3)c(Cl)cc1C#N` (stereo not drawn) [Example 40, 5-Chloro-4-(1-hydroxy-2-(2-(5-(methylsulfonyl)pyridin-2-yl)-2,8-diazaspiro[4.5]decan-8-yl)ethyl)-2-methoxybenzonitrile], the IC50 is 168 nM.
Then `Cc1c([C@@H](O)CN2CCC3(CC2)CCN(c2ncc(S(C)(=O)=O)cn2)C3)ccc2c1COC2=O` [Example 41, (R)-5-(1-Hydroxy-2-(2-(5-(methylsulfonyl)pyrimidin-2-yl)-2,8-diazaspiro[4.5]decan-8-yl)ethyl)-4-methylisobenzofuran-1(3H)-one], with 101 nM; and `Cc1c([C@@H](O)CN2CCC3(CC2)CCN(c2cnc(S(C)(=O)=O)cn2)C3=O)ccc2c1COC2=O` [Example 42, (R)-8-(2-Hydroxy-2-(4-methyl-1-oxo-1,3-dihydroisobenzofuran-5-yl)ethyl)-2-(5-(methylsulfonyl)pyrazin-2-yl)-2,8-diazaspiro[4.5]decan-1-one], with 216 nM.
The value for `Cc1c([C@@H](O)CN2CCC3(CCCN(c4ncc(-n5cnnn5)cn4)C3)CC2)ccc2c1COC2=O` [Example 43, (R)-5-(2-(2-(5-(1H-tetrazol-1-yl)pyrimidin-2-yl)-2,9-diazaspiro[5.5]undecan-9-yl)-1-hydroxyethyl)-4-methylisobenzofuran-1(3H)-one] was 37 nM; that for `Cc1c([C@@H](O)CN2CCC3(CC2)CN(c2ccc(C#N)cn2)C3=O)ccc2c1COC2=O` [Example 44, (R)-6-(7-(2-Hydroxy-2-(4-methyl-1-oxo-1,3-dihydroisobenzofuran-5-yl)ethyl)-1-oxo-2,7-diazaspiro[3.5]nonan-2-yl)nicotinonitrile] was 369 nM; that for `Cc1c([C@@H](O)CN2CCC3(CC2)CN(c2ccc(C#N)cn2)C3)ccc2c1COC2=O` [Example 45, (R)-6-(7-(2-Hydroxy-2-(4-methyl-1-oxo-1,3-dihydroisobenzofuran-5-yl)ethyl)-2,7-diazaspiro[3.5]nonan-2-yl)nicotinonitrile] was 104 nM.
Then `Cc1c([C@@H](O)CN2CCC3(CC2)CN(c2ccc(S(C)(=O)=O)nc2)C3)ccc2c1COC2=O` [Example 46, (R)-5-(1-Hydroxy-2-(2-(6-(methylsulfonyl)pyridin-3-yl)-2,7-diazaspiro[3.5]nonan-7-yl)ethyl)-4-methylisobenzofuran-1(3H)-one], with 256 nM.
On to `Cc1c([C@@H](O)CN2CCC3(CC2)CN(c2ccc(S(C)(=O)=O)cn2)C3)ccc2c1COC2=O` [Example 47, (R)-5-(1-Hydroxy-2-(2-(5-(methylsulfonyl)pyridin-2-yl)-2,7-diazaspiro[3.5]nonan-7-yl)ethyl)-4-methylisobenzofuran-1(3H)-one], for which the half-inhibitory concentration (IC50) stood at 220 nM.
Then `Cc1c([C@@H](O)CN2CCC3(CC2)CN(c2ccc(S(C)(=O)=O)nn2)C3)ccc2c1COC2=O` [Example 48, (R)-5-(1-Hydroxy-2-(2-(6-(methylsulfonyl)pyridazin-3-yl)-2,7-diazaspiro[3.5]nonan-7-yl)ethyl)-4-methylisobenzofuran-1(3H)-one], with 71 nM.
For the compound `Cc1c([C@@H](O)CN2CCC3(CC2)CN(c2cnc(S(C)(=O)=O)cn2)C3)ccc2c1COC2=O` [Example 49, (R)-5-(1-Hydroxy-2-(2-(5-(methylsulfonyl)pyrazin-2-yl)-2,7-diazaspiro[3.5]nonan-7-yl)ethyl)-4-methylisobenzofuran-1(3H)-one], the IC50 worked out at 118 nM.
The value for `COc1cc(N2CC3(CCN(C[C@H](O)c4ccc5c(c4C)COC5=O)CC3)C2)ncc1C#N` [Example 50, (R)-6-(7-(2-hydroxy-2-(4-methyl-1-oxo-1,3-dihydroisobenzofuran-5-yl)ethyl)-2,7-diazaspiro[3.5]nonan-2-yl)-4-methoxynicotinonitrile] was 42.4 nM; that for `C[C@H]1Cc2cc(C(O)CN3CCC4(CC3)CN(c3ccc(C#N)cn3)C4)ccc2C(=O)O1` (stereo partly drawn) [Example 52A, 6-(7-(2-Hydroxy-2-((S)-3-methyl-1-oxoisochroman-6-yl)ethyl)-2,7-diazaspiro[3.5]nonan-2-yl)nicotinonitrile] was 48.7 nM; that for `C[C@@H]1Cc2cc(C(O)CN3CCC4(CC3)CN(c3ccc(C#N)cn3)C4)ccc2C(=O)O1` (stereo partly drawn) [Example 52B, 6-(7-(2-Hydroxy-2-((R)-3-methyl-1-oxoisochroman-6-yl)ethyl)-2,7-diazaspiro[3.5]nonan-2-yl)nicotinonitrile] was 69.9 nM.
Then `Cc1c([C@@H](O)CN2CCC3(CCN(c4ccc(C#N)cn4)CC3)C2)ccc2c1COC2=O` [Example 53, (R)-6-(2-(2-Hydroxy-2-(4-methyl-1-oxo-1,3-dihydroisobenzofuran-5-yl)ethyl)-2,8-diazaspiro[4.5]decan-8-yl)nicotinonitrile], with 19 nM; and `Cc1c([C@@H](O)CN2CCC3(CCN(c4ncc(-n5cnnn5)cn4)CC3)C2)ccc2c1COC2=O` [Example 54, (R)-5-(2-(8-(5-(1H-tetrazol-1-yl)pyrimidin-2-yl)-2,8-diazaspiro[4.5]decan-2-yl)-1-hydroxyethyl)-4-methylisobenzofuran-1(3H)-one], with 262 nM; and `Cc1c([C@@H](O)CN2CCC3(CC2)CCN(c2ccc(S(C)(=O)=O)nc2)C3=O)ccc2c1COC2=O` [Example 55, (R)-8-(2-Hydroxy-2-(4-methyl-1-oxo-1,3-dihydroisobenzofuran-5-yl)ethyl)-2-(6-(methylsulfonyl)pyridin-3-yl)-2,8-diazaspiro[4.5]decan-1-one], with 85.1 nM.
With `Cc1c([C@H](O)CN2CCC3(CC2)CCN(c2ccc(S(C)(=O)=O)cn2)C3)ccc2c1COC2=O` [Example 56, (S)-5-(1-Hydroxy-2-(2-(5-(methylsulfonyl)pyridin-2-yl)-2,8-diazaspiro[4.5]decan-8-yl)ethyl)-4-methylisobenzofuran-1(3H)-one], the IC50 stood at 341 nM.
Then `Cc1c([C@@H](O)CN2CCC3(CC2)CCN(c2ccc(S(C)(=O)=O)nn2)C3=O)ccc2c1COC2=O` [Example 57, (R)-8-(2-Hydroxy-2-(4-methyl-1-oxo-1,3-dihydroisobenzofuran-5-yl)ethyl)-2-(6-(methylsulfonyl)pyridazin-3-yl)-2,8-diazaspiro[4.5]decan-1-one], with 59.2 nM; and `COc1cc(N2CCC3(CCN(C[C@H](O)c4ccc5c(c4C)COC5=O)CC3)C2=O)ncc1C#N` [Example 58, (R)-6-(8-(2-Hydroxy-2-(4-methyl-1-oxo-1,3-dihydroisobenzofuran-5-yl)ethyl)-1-oxo-2,8-diazaspiro[4.5]decan-2-yl)-4-methoxynicotinonitrile], with 49.4 nM; and `COc1cc(N2CC3(CCN(C[C@H](O)c4ccc5c(c4C)COC5=O)CC3)CC2=O)ncc1C#N` [Example 59, (R)-6-(8-(2-Hydroxy-2-(4-methyl-1-oxo-1,3-dihydroisobenzofuran-5-yl)ethyl)-3-oxo-2,8-diazaspiro[4.5]decan-2-yl)-4-methoxynicotinonitrile], with 32.9 nM.
